How the values were obtained:
[1] = system: Adjuvant-Induced Arthritis in Rats; assay: Established adjuvant-induced arthritis in rats (antiinflammatory activity, paw volume); assay type: in vivo, Charles River Lewis male rats; conditions: oral by gavage, that day and 6 following days; for AA % Reduction @ 27 mg/kg: % reduction in paw volume at 27 mg/kg, * p <0.05 (Examples 2, 3, 6), ** p >0.1 (Example 9) compared to control
Description: A procedure for detecting and comparing the antiinflammatory activity of compounds in this series and standard drugs for which there is a good correlation with human efficacy is the adjuvant-induced arthritis test in rats.
Charles River Lewis male rats (130-150 grams) are injected subcutaneously in plantar area of the right hind paw with 0.1 ml of adjuvant (Difco heat-killed, lyophilized Mycobacterium butyricum suspended in mineral oil 5 mg/ml). 20 Non-arthritic controls are injected with mineral oil. The animals are held for 2 weeks to allow development of arthritis. Paw volumes (uninjected, left hind paw) are measured and the adjuvant injected rats are culled and distributed to treatment groups of 10 of equal disease severity. Non-arthritic controls are distributed to 2 groups of 10. The rats are given oral doses of compound or PVA-Acacia (Polyvinyl Alcohol 1%, Gum Acacia, U.S.P. 5%, Methylparaben 0.5%) (10 ml/kg) by gavage on that day and on the 6 following days. One day after the last dose the paw volumes (uninjected, left hind paw) are measured using a Ugo Basile Volume Differential Meter Model 7101. [formula]
Dose-response regression lines of the % decrease are plotted on semi-log paper by visual fit and the ED50% decrease from control paw volume is determined by inspection. Alternatively, % reduction in paw volume was measured at a dose of 27 mg/kg.

phenylquinone writhing = assay: Phenylquinone writhing test (analgesic activity); assay type: in vivo, female white mice; conditions: Mus musculus; oral in 1% methylcellulose, fasted mice, observed from 30 minutes after dosing for 10 minutes; effective analgesic dose for 50% of the mice; read-out: PQW ED50
Description: A procedure for detecting and comparing the analgesic activity of compounds in this series and standard drugs for which there is a good correlation with human efficacy is the phenylquinone writhing test.
The phenylquinone writhing test, modified from Siegmund, et al., Proc. Soc. Exp. Biol. Med. 95, 729 (1957), was employed. A test compound suspended in 1% methylcellulose was given orally to fasted (17-21 hours) female white mice, 5-20 animals per double blind test. Aqueous (0.01% phenyl-p-benzoquinone) phenylquinone was injected intraperitoneally 24 minutes later using 0.20 ml per mouse. […] The effective analgesic dose for 50% of the mice (ED50) was calculated by the moving average method of Thompson, W. R., Bact. Rev., 11, 115-145 (1947).

## Fc1ccc(-c2cnc(SC(F)(F)C(F)F)nc2-c2ccc(F)cc2)cc1 [Example 4]
[1]
  AA % Reduction @ 27 mg/kg: 0%
Phenylquinone writhing
  ED50: 45 mg/kg

## COc1ccc(-c2cnc(SC(F)(F)C(F)F)nc2-c2ccc(OC)cc2)cc1 [Example 1, 2-(1,1,2,2-Tetrafluoroethylthio)-4,5-bis(4-methoxyphenyl)pyrimidine]
[1]; Rattus norvegicus, ED50% decrease from control paw volume, uninjected left hind paw, read-out: AA ED50
  ED50: 25 mg/kg
Phenylquinone writhing
  ED50: > 108 mg/kg

## COc1ccc(-c2cnc(SC)nc2-c2ccc(OC)cc2)cc1 [Example 9]
[1]
  AA % Reduction @ 27 mg/kg: 16%
Phenylquinone writhing
  ED50: 108 mg/kg

## COc1ccc(-c2nc(SC(F)(F)F)ncc2-c2ccc(Cl)cc2)cc1 [Example 7]
[1]
  AA % Reduction @ 27 mg/kg: 0%
Phenylquinone writhing
  ED50: 49 mg/kg

## COc1ccc(-c2cnc(SC(F)(F)F)nc2-c2ccc(OC)cc2)cc1 [Example 6]
[1]
  AA % Reduction @ 27 mg/kg: 32%
Phenylquinone writhing
  ED50: 48 mg/kg

## Fc1ccc(-c2cnc(SC(F)(F)F)nc2-c2ccc(F)cc2)cc1 [Example 2, 2-Trifluoromethylthio-4,5-bis(4-fluorophenyl)-pyrimidine]
[1]
  AA % Reduction @ 27 mg/kg: 37%
Phenylquinone writhing
  ED50: > 108 mg/kg

## COc1ccc(-c2nc(SC)ncc2-c2ccc(Cl)cc2)cc1 [Example 3, 2-Methylthio-4-(4-methoxyphenyl)-5-(4-chlorophenyl)-pyrimidine]
[1]
  AA % Reduction @ 27 mg/kg: 39%
Phenylquinone writhing
  ED50: > 108 mg/kg

Source: patent US4438117A, “2-Substituted thio-4,5-diarylpyrimidines” (E. I. Du Pont de Nemours and Company, priority 1980, dated 1984)
